Data from ChEMBL document CHEMBL1201862, “PubChem BioAssay data set” (2004).
Structures can show the parent of a compound that is named as a salt.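 Cells were grown in 96-well plates and exposed to each compound for 48 hours at five concentrations; endpoints were interpolated linearly between bracketing concentrations, or set to the highest concentration if not reached. GI50 is the concentration that inhibits growth by half.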 The source made the active and inactive calls. No stated cut-off is given here; in the data, active = GI50 up to about 1.1 µM and inactive = higher.

Legend:
Experiment in all cases: DTP human tumour cell line panel, 48 h
A549 = tested on: A549
SF-539 = tested on: SF-539
HT-29 = tested on: HT-29
EKVX = tested on: EKVX
CAKI-1 = tested on: CAKI-1
LOX IMVI = tested on: LOX IMVI
HOP-92 = tested on: HOP-92
COLO 205 = tested on: COLO 205
OVCAR-4 = tested on: OVCAR-4
MOLT-4 = tested on: MOLT-4
A498 = tested on: A498
SW-620 = tested on: SW-620
SNB-19 = tested on: SNB-19
CCRF-CEM = tested on: CCRF-CEM
SF-295 = tested on: SF-295
MDA-MB-231 = tested on: MDA-MB-231
MCF7 = tested on: MCF7
BT-549 = tested on: BT-549
UACC-62 = tested on: UACC-62
SNB-75 = tested on: SNB-75

SMILES: Cc1ccc(S(=O)(=O)N/N=C2/C(=O)Nc3c(Cl)cc(Cl)cc32)cc1
- GI50 (A549): 67.5 µM (inactive)
- GI50 (SF-539): 66.1 µM (inactive)
- GI50 (HT-29): 39.1 µM (inactive)
- GI50 (EKVX): 5.52 µM (inactive)
- GI50 (CAKI-1): 59.4 µM (inactive)
- GI50 (LOX IMVI): 37.8 µM (inactive)
- GI50 (HOP-92): > 100 µM (inactive)
- GI50 (COLO 205): 68.7 µM (inactive)
- GI50 (OVCAR-4): > 100 µM (inactive)
- GI50 (MOLT-4): 38.5 µM (inactive)
- GI50 (A498): 55.5 µM (inactive)
- GI50 (SW-620): 99.1 µM (inactive)
- GI50 (SNB-19): > 100 µM (inactive)
- GI50 (CCRF-CEM): 55.6 µM (inactive)
- GI50 (SF-295): 35.8 µM (inactive)
- GI50 (MDA-MB-231): > 100 µM (inactive)
- GI50 (MCF7): 75 µM (inactive)
- GI50 (BT-549): 86.7 µM (inactive)
- GI50 (UACC-62): 62.5 µM (inactive)

SMILES: Cc1cc(C)n(CN(CCCCO)Cn2nc(C)cc2C)n1
- GI50 (A549): 49.2 µM (inactive)
- GI50 (SF-539): 18.6 µM (inactive)
- GI50 (HT-29): 17.9 µM (inactive)
- GI50 (EKVX): 35.3 µM (inactive)
- GI50 (CAKI-1): 34.4 µM (inactive)
- GI50 (LOX IMVI): 22.8 µM (inactive)
- GI50 (HOP-92): 22 µM (inactive)
- GI50 (COLO 205): 17.2 µM (inactive)
- GI50 (OVCAR-4): 24.7 µM (inactive)
- GI50 (MOLT-4): 14.2 µM (inactive)
- GI50 (A498): > 100 µM (inactive)
- GI50 (SW-620): 21.7 µM (inactive)
- GI50 (SNB-19): 57.1 µM (inactive)
- GI50 (CCRF-CEM): 0.178 µM (active)
- GI50 (SF-295): > 100 µM (inactive)
- GI50 (MDA-MB-231): 29.9 µM (inactive)
- GI50 (MCF7): 26.8 µM (inactive)
- GI50 (BT-549): 23 µM (inactive)
- GI50 (UACC-62): 19.1 µM (inactive)

SMILES: Cc1nnc2n1N=C(c1ccccc1)/C(=C/c1ccc(-c3ccc(Cl)cc3)o1)S2
- GI50 (A549): 18 µM (inactive)
- GI50 (HT-29): 16.5 µM (inactive)
- GI50 (EKVX): 20 µM (inactive)
- GI50 (CAKI-1): 15.1 µM (inactive)
- GI50 (HOP-92): 17.5 µM (inactive)
- GI50 (COLO 205): 25.2 µM (inactive)
- GI50 (OVCAR-4): 15.7 µM (inactive)
- GI50 (MOLT-4): 3.55 µM (inactive)
- GI50 (A498): 17.3 µM (inactive)
- GI50 (SW-620): 5 µM (inactive)
- GI50 (SNB-19): 16.6 µM (inactive)
- GI50 (CCRF-CEM): 2.71 µM (inactive)
- GI50 (SF-295): 15.9 µM (inactive)
- GI50 (MDA-MB-231): 15.1 µM (inactive)
- GI50 (MCF7): 2.11 µM (inactive)
- GI50 (BT-549): 11.4 µM (inactive)
- GI50 (UACC-62): 12.4 µM (inactive)

SMILES: C(=N\Nc1nnc(-c2nnc(N/N=C/c3ccccc3)o2)o1)/c1ccccc1
- GI50 (A549): > 10 µM (inactive)
- GI50 (SF-539): > 10 µM (inactive)
- GI50 (HT-29): > 10 µM (inactive)
- GI50 (EKVX): > 10 µM (inactive)
- GI50 (CAKI-1): > 10 µM (inactive)
- GI50 (HOP-92): > 10 µM (inactive)
- GI50 (COLO 205): > 10 µM (inactive)
- GI50 (OVCAR-4): > 10 µM (inactive)
- GI50 (MOLT-4): > 10 µM (inactive)
- GI50 (A498): > 10 µM (inactive)
- GI50 (SW-620): > 10 µM (inactive)
- GI50 (SNB-19): > 10 µM (inactive)
- GI50 (CCRF-CEM): > 10 µM (inactive)
- GI50 (SF-295): > 10 µM (inactive)
- GI50 (MDA-MB-231): > 10 µM (inactive)
- GI50 (MCF7): > 10 µM (inactive)
- GI50 (BT-549): > 10 µM (inactive)
- GI50 (UACC-62): > 10 µM (inactive)

SMILES: N#CC12C(=O)N3C(=NC(c4ccccc4)NC3c3ccccc3)C1(C#N)C(c1ccccc1)NC1=C2CCCC1 (stereo unspecified)
- GI50 (A549): > 100 µM (inactive)
- GI50 (HT-29): > 100 µM (inactive)
- GI50 (EKVX): > 100 µM (inactive)
- GI50 (CAKI-1): > 100 µM (inactive)
- GI50 (LOX IMVI): > 100 µM (inactive)
- GI50 (HOP-92): > 100 µM (inactive)
- GI50 (COLO 205): > 100 µM (inactive)
- GI50 (OVCAR-4): > 100 µM (inactive)
- GI50 (MOLT-4): > 100 µM (inactive)
- GI50 (A498): > 100 µM (inactive)
- GI50 (SW-620): > 100 µM (inactive)
- GI50 (SNB-19): > 100 µM (inactive)
- GI50 (CCRF-CEM): 30.3 µM (inactive)
- GI50 (SF-295): > 100 µM (inactive)
- GI50 (SNB-75): > 100 µM (inactive)
- GI50 (MDA-MB-231): > 100 µM (inactive)
- GI50 (MCF7): > 100 µM (inactive)
- GI50 (BT-549): > 100 µM (inactive)
- GI50 (UACC-62): > 100 µM (inactive)

SMILES: NC(=O)NC1C(c2ccccc2)=C1c1ccccc1
- GI50 (A549): 27.4 µM (inactive)
- GI50 (SF-539): 15.4 µM (inactive)
- GI50 (HT-29): 21.7 µM (inactive)
- GI50 (EKVX): 26.8 µM (inactive)
- GI50 (CAKI-1): 18.9 µM (inactive)
- GI50 (LOX IMVI): 13.5 µM (inactive)
- GI50 (HOP-92): 11.9 µM (inactive)
- GI50 (COLO 205): 13 µM (inactive)
- GI50 (OVCAR-4): 15.3 µM (inactive)
- GI50 (MOLT-4): 4.88 µM (inactive)
- GI50 (A498): 15 µM (inactive)
- GI50 (SW-620): 13.7 µM (inactive)
- GI50 (SNB-19): 34.8 µM (inactive)
- GI50 (CCRF-CEM): 5.47 µM (inactive)
- GI50 (SF-295): 17.6 µM (inactive)
- GI50 (MDA-MB-231): 12.6 µM (inactive)
- GI50 (MCF7): 14.7 µM (inactive)
- GI50 (BT-549): 12.6 µM (inactive)
- GI50 (UACC-62): 9.23 µM (inactive)

SMILES: CN(C)Cc1ccc(-c2cc3onc(-c4ccccc4)c3c(=O)n2C)cc1
- GI50 (A549): 16.4 µM (inactive)
- GI50 (SF-539): 20.3 µM (inactive)
- GI50 (HT-29): 11 µM (inactive)
- GI50 (EKVX): > 100 µM (inactive)
- GI50 (CAKI-1): 85.3 µM (inactive)
- GI50 (LOX IMVI): 17.9 µM (inactive)
- GI50 (HOP-92): 7.87 µM (inactive)
- GI50 (COLO 205): 20 µM (inactive)
- GI50 (OVCAR-4): 84.9 µM (inactive)
- GI50 (MOLT-4): 17.8 µM (inactive)
- GI50 (A498): 22.6 µM (inactive)
- GI50 (SW-620): 21.3 µM (inactive)
- GI50 (SNB-19): 57.8 µM (inactive)
- GI50 (SF-295): 22.9 µM (inactive)
- GI50 (MDA-MB-231): 28.5 µM (inactive)
- GI50 (MCF7): 41.2 µM (inactive)
- GI50 (BT-549): 38.5 µM (inactive)
- GI50 (UACC-62): 25.9 µM (inactive)

SMILES: CC(=O)c1cccc(Nc2c3ccccc3nc3occc23)c1
- GI50 (A549): 16.5 µM (inactive)
- GI50 (SF-539): 2.16 µM (inactive)
- GI50 (HT-29): 1.51 µM (inactive)
- GI50 (EKVX): 25.6 µM (inactive)
- GI50 (CAKI-1): 2.48 µM (inactive)
- GI50 (LOX IMVI): 5.04 µM (inactive)
- GI50 (HOP-92): 11.5 µM (inactive)
- GI50 (COLO 205): 11.7 µM (inactive)
- GI50 (OVCAR-4): 0.438 µM (active)
- GI50 (MOLT-4): 5.27 µM (inactive)
- GI50 (A498): 31.4 µM (inactive)
- GI50 (SNB-19): 10.9 µM (inactive)
- GI50 (CCRF-CEM): 3.3 µM (inactive)
- GI50 (SF-295): 3.83 µM (inactive)
- GI50 (MDA-MB-231): 9.93 µM (inactive)
- GI50 (MCF7): 3.94 µM (inactive)
- GI50 (BT-549): 12.3 µM (inactive)
- GI50 (UACC-62): 9.04 µM (inactive)

SMILES: O=C(O)C(Cc1c[nH]cn1)N1C(=O)c2ccccc2C1=O (stereo unspecified)
- GI50 (A549): > 100 µM (inactive)
- GI50 (HT-29): > 100 µM (inactive)
- GI50 (EKVX): > 100 µM (inactive)
- GI50 (CAKI-1): > 100 µM (inactive)
- GI50 (LOX IMVI): > 100 µM (inactive)
- GI50 (HOP-92): > 100 µM (inactive)
- GI50 (COLO 205): > 100 µM (inactive)
- GI50 (OVCAR-4): > 100 µM (inactive)
- GI50 (MOLT-4): > 100 µM (inactive)
- GI50 (A498): > 100 µM (inactive)
- GI50 (SW-620): > 100 µM (inactive)
- GI50 (SNB-19): > 100 µM (inactive)
- GI50 (SF-295): 30 µM (inactive)
- GI50 (SNB-75): > 100 µM (inactive)
- GI50 (MDA-MB-231): 38 µM (inactive)
- GI50 (MCF7): > 100 µM (inactive)
- GI50 (BT-549): > 100 µM (inactive)
- GI50 (UACC-62): > 100 µM (inactive)

SMILES: CSc1nc(NC2CC2)c2c(n1)Sc1nc3ccccc3n1N=C2
- GI50 (A549): 18.7 µM (inactive)
- GI50 (SF-539): 12.2 µM (inactive)
- GI50 (HT-29): 26.3 µM (inactive)
- GI50 (EKVX): 24.2 µM (inactive)
- GI50 (CAKI-1): 34.9 µM (inactive)
- GI50 (LOX IMVI): 31.8 µM (inactive)
- GI50 (HOP-92): 21 µM (inactive)
- GI50 (COLO 205): 41.9 µM (inactive)
- GI50 (OVCAR-4): 16.7 µM (inactive)
- GI50 (MOLT-4): > 100 µM (inactive)
- GI50 (A498): 10.5 µM (inactive)
- GI50 (SW-620): 26.6 µM (inactive)
- GI50 (SNB-19): 34.4 µM (inactive)
- GI50 (CCRF-CEM): > 100 µM (inactive)
- GI50 (MDA-MB-231): 17.8 µM (inactive)
- GI50 (MCF7): 26.6 µM (inactive)
- GI50 (BT-549): 34.2 µM (inactive)
- GI50 (UACC-62): 17.9 µM (inactive)

SMILES: CN(C)CCC=C1c2ccccc2C=Cc2ccccc21 [CYCLOBENZAPRINE HYDROCHLORIDE]
- GI50 (A549): 20 µM (inactive)
- GI50 (HT-29): 5.25 µM (inactive)
- GI50 (EKVX): 10.9 µM (inactive)
- GI50 (CAKI-1): 17 µM (inactive)
- GI50 (LOX IMVI): 16.7 µM (inactive)
- GI50 (HOP-92): 15.6 µM (inactive)
- GI50 (COLO 205): 14.4 µM (inactive)
- GI50 (OVCAR-4): 23.1 µM (inactive)
- GI50 (MOLT-4): 16.8 µM (inactive)
- GI50 (A498): 15.8 µM (inactive)
- GI50 (SW-620): 17.1 µM (inactive)
- GI50 (SNB-19): 19.8 µM (inactive)
- GI50 (SF-295): 17.2 µM (inactive)
- GI50 (SNB-75): 14.7 µM (inactive)
- GI50 (MDA-MB-231): 17.3 µM (inactive)
- GI50 (MCF7): 16.3 µM (inactive)
- GI50 (BT-549): 17.4 µM (inactive)
- GI50 (UACC-62): 16.6 µM (inactive)
